Results on 1 compound are retold here after patent EP4168396B1, “COMPOUNDS FOR THE TREATMENT OF NEURODEGENERATIVE DISEASES” (Universite De Franche Comte, priority 2020, dated 2021).

What is called IC50 is the concentration that gives 50% inhibition. The term Ki denotes a measure of affinity in units of concentration, obtained from inhibition or displacement.

The target in one assay is T1, Human recombinant GSK-3β (Homo sapiens, UniProt P49841).
T1 construct: purchased Millipore (Millipore Iberica S.A.U.)
As to the kind of experiment: GSK-3β inhibition in vitro assay (Kinase-Glo luminescence). It counts as biochemical. Particulars: read-out: Gsk3β IC50. As to the method: Human recombinant GSK-3β, prephosphorylated polypeptide substrate and white 96-well plates were purchased from Millipore (Millipore Iberica S.A.U.). Kinase-Glo Luminescent Kinase Assay was obtained from Promega (Promega Biotech Iberica, SL). Adenosinetriphosphate (ATP) and all other reagents were from Sigma-Aldrich. Assay buffer contained 50 mM 4-(2-hydroxyethyl)-1- piperazineethanesulfonic acid (HEPES) (pH 7.5), 1 mM ethylenediaminetetraacetic acid (EDTA), 1 mM ethylene glycol tetraacetic acid (EGTA), and 15 mM magnesium acetate. The in solution experiments for GSK-3β inhibition analysis were performed by following the method developed by Baki et al.^18. In a typical assay, 10 µL of test compound (dissolved in DMSO at 1 mM concentration and diluted in advance in assay buffer to the desired concentration) and 10 µL (20 ng) of enzyme were added to each well in presence of 20 µL of assay buffer containing GSM substrate and ATP in order to reach a 25 µM and 1 µM final concentration respectively. […] After a 30 min incubation time at 30 °C, the enzymatic reaction was stopped by adding 40 µL of Kinase-Glo reagent. Glow-type luminescence was recorded after 10 min using a VictorX 3 PerkinElmer plate reader. […]. The linear regression parameters were determined and the IC50 extrapolated (GraphPad Prism 4.0, GraphPad Software Inc.).
Background: In Kinase-Glo more light means more ATP remaining.

In assay [1] the test system is voltage-gated Ca^2+ channels (VGCC). As to the kind of experiment: Calcium channel antagonist assay (cytosolic Ca2+, Fluo-4). It counts as cell-based. Particulars: SH-SY5Y cells, K+ 70 mM. As for the experimental part: The cytosolic Ca2+ has been measured in SH-SY5Y cells. SH-SY5Y cells were maintained similarly to what was previously described56. Free cytosolic Ca2+ was measured using the fluorescent Ca2+ indicator Fluo-4/AM (Fluo-4 acetomethoxyester). SH-SY5Y cells were seeded onto 96-well black plates at a density of 10^5 cells per well, achieving confluence after 48 h. Cells were washed with Krebs-Hepes solution (KH, in mM: 144 NaCl, 5.9 KCl, 1.2 MgCl2, 2 CaCl2, 11 D-glucose, 10 HEPES, pH 7.4). Cells were loaded with 10 µM Fluo-4/AM and 0.2% pluronic acid in KH and incubated for 45 min at 37 °C in the dark. Then, cells were washed twice with KH to remove the excess of probe. Tested compounds were incubated 10 min before K+ 70 mM was applied to evoke the increment of cytosolic Ca2+. To normalize Fluo-4 signals, Triton X-100 (5%) and 1 M MnCl2 were applied to register both maximal and minimal fluorescence, respectively. The experiments were analyzed at excitation and emission wavelengths of 485 and 520 nm, respectively, and fluorescence was measured in a fluorescence microplate reader (FLUOstar Optima, BMG, Germany). Data were calculated as a percentage of Fmax - Fmin.
The blocking effect of the depolarization-induced Ca^2+ uptake was investigated in SH-SY5Y neuroblastoma cells stimulated with an extracellular concentration of K^+ 70 mM, which induces the cell Ca^2+ levels elevation by opening voltage-gated Ca^2+ channels (VGCC), monitored with the Ca^2+-sensitive fluorescent dye Fluo-4. Nimodipine was used as positive standard.

In assay [2] the target is T2, Human butyrylcholinesterase (hBuChE) (Homo sapiens, UniProt P06276).
T2 construct: Human butyrylcholinesterase (hBuChE) isolated from human plasma was from Vivonics; purchased Vivonics (Bedford, MA, USA); host or cells: human plasma
As to the kind of experiment: Cholinesterase inhibition assay (Ellman), hBuChE. It counts as biochemical. As for the experimental part: Inhibitory activities of the test compounds against the human cholinesterases were measured using the spectrophotometric method described by Ellman et al.^4, as modified for 96-well microplates. 5,5'-Dithiobis-(2-nitrobenzoic acid) (DTNB), acetylthiocholine iodide (ATC), butyrylthiocholine iodide (BTC), and human recombinant acetylcholinesterase (hAChE) were purchased from Sigma-Aldrich. Human butyrylcholinesterase (hBuChE) isolated from human plasma was from Vivonics (Bedford, MA, USA). […] The stock solutions of the test compounds were prepared by dissolving in DMSO to obtain a concentration of 0.0034M. They were further diluted in water to give appropriate concentration in a well. In the first step of Ellman's method 25 µL of the test compound (or mixture DMSO/water in appropriate ratio; i.e. blank samples) was incubated in 0.1 M phosphate buffer (200 µL, pH= 8.0) with DTNB (20 µL; 0.0025M) and the enzyme (20 µL; hAChE or hBuChE) in temperature 36 °C. […] All compounds were tested at screening concentration of 10 µM. Percent of inhibition was calculated from 100-(S/B)×100, where S and B were the respective enzyme activities with and without the test sample, respectively. […] All reactions were performed in triplicate. The IC50 values were calculated using nonlinear regression (GraphPad Prism 5 [GraphPad Software, San Diego California USA 5.00]) by plotting the residual enzyme activities against the applied inhibitor concentration. Tacrine was used as a reference compound.
For orientation: In Ellman's method for cholinesterases, released thiocholine reacts with DTNB.

The target in assay [3] is T3, human recombinant acetylcholinesterase (hAChE) (Homo sapiens, UniProt P22303).
T3 construct: purchased Sigma-Aldrich
As to the kind of experiment: Cholinesterase inhibition assay (Ellman), hAChE. Particulars: read-out: hAChE IC50. It counts as biochemical. As to the method:
Inhibitory activities of the test compounds against the human cholinesterases were measured using the spectrophotometric method described by Ellman et al.^4, as modified for 96-well microplates. 5,5'-Dithiobis-(2-nitrobenzoic acid) (DTNB), acetylthiocholine iodide (ATC), butyrylthiocholine iodide (BTC), and human recombinant acetylcholinesterase (hAChE) were purchased from Sigma-Aldrich. Human butyrylcholinesterase (hBuChE) isolated from human plasma was from Vivonics (Bedford, MA, USA). […] In the first step of Ellman's method 25 µL of the test compound (or mixture DMSO/water in appropriate ratio; i.e. blank samples) was incubated in 0.1 M phosphate buffer (200 µL, pH= 8.0) with DTNB (20 µL; 0.0025M) and the enzyme (20 µL; hAChE or hBuChE) in temperature 36 °C. […] All compounds were tested at screening concentration of 10 µM. Percent of inhibition was calculated from 100-(S/B)×100, where S and B were the respective enzyme activities with and without the test sample, respectively. […] All reactions were performed in triplicate. The IC50 values were calculated using nonlinear regression (GraphPad Prism 5 [GraphPad Software, San Diego California USA 5.00]) by plotting the residual enzyme activities against the applied inhibitor concentration. Tacrine was used as a reference compound.

The next assay addresses T4, human H3 receptor (Homo sapiens, UniProt Q9Y5N1).
T4 construct: expressed in transfected cells; host or cells: CHO-K1
Put plainly: H3 Receptor Binding Assay (radioligand binding). Particulars: membranes from CHO-K1 cells, [3H]-N-α-methylhistamine 1.0 nM; read-out: H3R Ki [nM] ± SEM. As for the experimental part: 10 mM stock solutions of compounds to be tested were prepared in DMSO.
Radioligand binding was performed using membranes from CHO-K1 cells stably transfected with the human H3 receptor. All assays were carried out in duplicates. 50 µl working solution of the tested compounds, 50 µl [3H]-N-α-methylhistamine (spec. act. 82.9 Ci/mmol, final concentration 1.0 nM) and 150 µl diluted membranes (15 µg protein per well) prepared in assay buffer (50 mM Tris, pH 7.4, 5 mM MgCl2) were transferred to polypropylene 96-well microplate using 96-wells pipetting station Rainin Liquidator (MettlerToledo). […] Microplate was covered with a sealing tape, mixed and incubated for 60 minutes at 27°C. The reaction was terminated by rapid filtration through GF/B filter mate presoaked with 0.5% polyethyleneimine for 30 minutes. Five rapid washes with 300 µl 50 mM Tris buffer (4°C, pH 7.4) were performed using 96-well FilterMate harvester (PerkinElmer, USA). The filter mates were dried at 37°C in forced air fan incubator and then solid scintillator MeltiLex was melted on filter mates at 90°C for 4 minutes. Radioactivity was counted in MicroBeta2 scintillation counter (PerkinElmer). Data were fitted to a one-site curve-fitting equation with Prism 5 (GraphPad Software) and Ki values were estimated from the Cheng-Prusoff equation.

T2 sequence (P06276 29-602): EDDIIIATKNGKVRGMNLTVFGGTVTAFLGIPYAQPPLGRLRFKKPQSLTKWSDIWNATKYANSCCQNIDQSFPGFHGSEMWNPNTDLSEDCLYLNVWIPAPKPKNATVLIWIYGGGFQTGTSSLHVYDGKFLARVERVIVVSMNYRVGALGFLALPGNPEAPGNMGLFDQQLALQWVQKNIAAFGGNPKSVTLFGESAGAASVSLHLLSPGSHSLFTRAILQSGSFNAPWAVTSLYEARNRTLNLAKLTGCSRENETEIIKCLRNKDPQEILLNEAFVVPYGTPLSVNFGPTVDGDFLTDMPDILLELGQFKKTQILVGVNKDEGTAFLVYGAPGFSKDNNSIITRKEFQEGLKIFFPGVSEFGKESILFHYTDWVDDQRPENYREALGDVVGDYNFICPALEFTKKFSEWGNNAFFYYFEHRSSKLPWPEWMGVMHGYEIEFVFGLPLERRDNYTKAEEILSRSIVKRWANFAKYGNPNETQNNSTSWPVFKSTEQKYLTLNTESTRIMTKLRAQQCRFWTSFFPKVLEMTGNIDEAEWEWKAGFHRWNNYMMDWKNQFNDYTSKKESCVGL
T3 sequence (P22303 32-614): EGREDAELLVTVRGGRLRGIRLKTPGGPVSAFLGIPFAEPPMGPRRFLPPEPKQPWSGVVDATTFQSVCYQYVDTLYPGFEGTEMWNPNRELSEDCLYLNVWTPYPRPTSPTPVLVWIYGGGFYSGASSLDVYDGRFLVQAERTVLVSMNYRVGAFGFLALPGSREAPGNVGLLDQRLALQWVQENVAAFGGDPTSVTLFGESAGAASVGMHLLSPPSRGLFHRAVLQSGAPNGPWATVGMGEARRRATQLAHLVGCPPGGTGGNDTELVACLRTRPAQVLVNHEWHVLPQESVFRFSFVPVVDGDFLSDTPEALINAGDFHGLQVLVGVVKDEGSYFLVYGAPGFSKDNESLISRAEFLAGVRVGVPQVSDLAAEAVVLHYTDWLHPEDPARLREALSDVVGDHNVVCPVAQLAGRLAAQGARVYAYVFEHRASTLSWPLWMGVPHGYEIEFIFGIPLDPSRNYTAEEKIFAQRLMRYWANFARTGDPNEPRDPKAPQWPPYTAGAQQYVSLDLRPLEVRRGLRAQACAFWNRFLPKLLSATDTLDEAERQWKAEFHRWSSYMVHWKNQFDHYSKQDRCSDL
T4 sequence (Q9Y5N1 whole entry): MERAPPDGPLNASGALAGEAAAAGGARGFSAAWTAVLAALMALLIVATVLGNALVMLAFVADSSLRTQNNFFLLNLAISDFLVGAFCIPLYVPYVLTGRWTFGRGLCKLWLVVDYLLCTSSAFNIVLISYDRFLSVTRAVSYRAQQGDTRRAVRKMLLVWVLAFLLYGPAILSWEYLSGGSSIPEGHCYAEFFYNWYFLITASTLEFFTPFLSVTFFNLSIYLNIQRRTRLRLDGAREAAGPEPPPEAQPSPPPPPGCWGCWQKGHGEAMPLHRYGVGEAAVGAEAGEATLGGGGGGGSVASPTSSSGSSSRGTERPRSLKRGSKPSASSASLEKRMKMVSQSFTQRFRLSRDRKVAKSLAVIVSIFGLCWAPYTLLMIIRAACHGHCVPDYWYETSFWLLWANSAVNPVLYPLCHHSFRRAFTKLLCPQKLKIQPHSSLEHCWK
T1 sequence (P49841 whole entry): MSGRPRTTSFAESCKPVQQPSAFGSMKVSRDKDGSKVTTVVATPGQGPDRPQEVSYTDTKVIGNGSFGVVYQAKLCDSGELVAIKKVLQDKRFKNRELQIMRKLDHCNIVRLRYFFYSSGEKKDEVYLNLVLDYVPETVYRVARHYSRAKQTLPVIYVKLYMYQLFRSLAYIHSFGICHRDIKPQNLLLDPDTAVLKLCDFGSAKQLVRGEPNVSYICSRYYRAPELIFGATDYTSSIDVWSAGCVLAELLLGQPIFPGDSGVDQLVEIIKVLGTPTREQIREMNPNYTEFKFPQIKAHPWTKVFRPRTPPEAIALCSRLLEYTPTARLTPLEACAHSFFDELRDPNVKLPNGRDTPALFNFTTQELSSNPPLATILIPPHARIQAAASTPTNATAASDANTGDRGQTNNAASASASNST

As to `CCOC(=O)C1=C(C)N(CCC2CCN(Cc3ccccc3)CC2)C(=O)NC1c1ccc(OCCCCCCN2CCCCC2)cc1` (centres unmarked) [BIGI-BIH-D8, Ethyl 1-(2-(1-benzylpiperidin-4-yl)ethyl)-6-methyl-2-oxo-4-(4-((6-(piperidin-1-yl)hexyl)oxy)phenyl)-1,2,3,4-tetrahydropyrimidine-5-carboxylate], the IC50 was found to be 68200 nM at Human recombinant GSK-3β, 1250 ± 46 nM in assay [2] and 86 ± 2 nM in assay [3]. In addition, the “Calcium Channel % inhibition at 10µM” value in assay [1] amounted to 60%. At human H3 receptor, the Ki worked out at 0.2 ± 0.02 nM.
